The assay relates to cell lines tested. Description: Cell proliferation assay, summary across all cell lines and drugs. The following applies: compared to primary drug alone. It is filed as cell-based. As for the experimental part: All cell lines were obtained from the American Type Culture Collection (ATCC) Manassas, Va. (US). Master and working cell banks (MCB and WCB) were prepared by subculturing in ATCC-recommended media and freezing protocols (www.atcc.org). Cell line stocks for the assays were prepared from the WCB. The MCB, WCBs and assay stocks were prepared within respectively 3, 6 and 9 passages of the ATCC vial.
Solid powders of reference compounds were weighed on a calibrated balance and dissolved in 100% DMSO. DMSO samples were stored at room temperature. At the day of the experiment, the compound stock was diluted in 3.16 fold steps in 100% DMSO to obtain a 9-point dilution series. This was further diluted 31.6 times in 20 mM sterile Hepes buffer pH 7.4. A volume of 5 μl was transferred to the cells to generate a test concentration range from 3.16×10^−5M to 3.16×10^−9 M in duplicate. The final DMSO concentration during incubation was […] in all wells.
An assay stock was thawed and diluted in its ATCC recommended medium and dispensed in a 384-well plate, depending on the cell line used, at a concentration of 200-3200 cells per well in 45 μl medium. For each used cell line the optimal cell density is used. The margins of the plate were filled with phosphate-buffered saline. Plated cells were incubated in a humidified atmosphere of 5% CO2 at 37° C. After 24 hours, 5 μl of compound dilution was added and plates were further incubated for another 120 hours. After 120 hours, 25 μl of ATPlite 1Step™ (PerkinElmer) solution was added to each well, and subsequently shaken for 2 minutes. After 10 minutes of incubation in the dark, the luminescence was recorded on an Envision multimode reader (PerkinElmer).
IC50s were calculated by non-linear regression using IDBS XLfit 5. The percentage growth after 120 h (%-growth) was calculated as follows: 100%×(luminescencet=120h/luminescenceuntreated,t=120h). This was fitted to the ^10log compound concentration (conc) by a 4-parameter logistics curve: %−growth=bottom+(top−bottom)/(1+10^(log IC50-conc)*hill)), where hill is the Hill-coefficient, and bottom and top the asymptotic minimum and maximum cell growth that the compound allows in that assay.

In the case of `CC(C)c1nc(CN(C)C(=O)N[C@@H](CCN2CCOCC2)C(=O)N[C@H](CC[C@H](Cc2ccccc2)NC(=O)OCc2cncs2)Cc2ccccc2)cs1` [cobicistat], the “increase in sensitivity to the primary drug, maximum” value (maximum across all experiments) turned out to be 8.7 fold. The “increase in sensitivity to the primary drug, average” value (on average, across all experiments) is on record as 2.9 fold.

These data come from patent US20180036289A1 (Gilead Sciences, Inc., priority 2016, published 2018).
